The record followed here is ChEMBL document CHEMBL3784985, “Thiadiazole derivatives as New Class of β-glucuronidase inhibitors” (Bioorg Med Chem, 2016).

By IC50 is commonly meant the concentration at which inhibition is half-maximal.

The assay has as its target T1, Beta-glucuronidase (Bos taurus, UniProt A3KMY8).
T1 sequence (A3KMY8 whole entry): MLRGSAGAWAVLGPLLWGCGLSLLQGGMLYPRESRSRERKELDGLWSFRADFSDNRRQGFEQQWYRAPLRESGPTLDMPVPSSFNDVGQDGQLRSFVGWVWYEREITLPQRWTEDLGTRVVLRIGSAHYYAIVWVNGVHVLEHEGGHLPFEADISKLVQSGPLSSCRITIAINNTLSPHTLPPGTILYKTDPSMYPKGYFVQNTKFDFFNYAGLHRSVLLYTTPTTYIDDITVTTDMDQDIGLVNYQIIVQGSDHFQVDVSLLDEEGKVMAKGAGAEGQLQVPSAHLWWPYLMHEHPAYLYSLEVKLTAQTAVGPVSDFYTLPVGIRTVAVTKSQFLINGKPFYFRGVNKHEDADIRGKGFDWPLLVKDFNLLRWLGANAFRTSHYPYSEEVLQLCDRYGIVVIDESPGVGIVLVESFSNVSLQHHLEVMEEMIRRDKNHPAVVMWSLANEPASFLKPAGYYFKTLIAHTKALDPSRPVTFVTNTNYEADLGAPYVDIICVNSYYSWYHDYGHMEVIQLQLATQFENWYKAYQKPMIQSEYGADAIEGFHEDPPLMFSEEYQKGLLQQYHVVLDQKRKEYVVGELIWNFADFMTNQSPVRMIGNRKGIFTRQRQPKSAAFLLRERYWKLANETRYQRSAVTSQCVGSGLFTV
Put plainly: Inhibition of bovine beta-glucuronidase assessed as p-nitrophenol formation preincubated for 30 mins followed by addition of p-nitrophenyl-beta-D-glucuronide by spectrophotometric analysis.
Take `Cc1ccc(Nc2nnc(-c3ccccc3)s2)cc1`: the IC50 stood at 48.4 µM. The value for `Brc1ccc(-c2nnc(Nc3ccccc3)s2)cc1` was 40.2 µM; that for `Cc1ccc(Nc2nnc(-c3ccc(Br)cc3)s2)cc1` was 28.6 µM; that for `Cc1ccc(-c2nnc(Nc3ccc(Cl)c(Cl)c3)s2)c(C)c1` was 15.6 µM.

With `COc1ccccc1-c1nnc(Nc2cccc(Br)c2)s1`, the IC50 is 49.2 µM. The value for `Clc1ccc(Nc2nnc(-c3ccccc3)s2)cc1Cl` was 6.28 µM; that for `Brc1ccc(-c2nnc(Nc3cccc(Br)c3)s2)cc1` was 17.3 µM; that for `COc1ccccc1-c1nnc(Nc2ccc(C)cc2)s1` was 58.1 µM. For the compound `COc1ccc(-c2nnc(Nc3ccc(C)cc3)s2)c(OC)c1`, the IC50 stood at 39.3 µM. In the case of `CC(C)(C)c1ccc(-c2nnc(Nc3ccc(Br)cc3)s2)cc1` it was 32.2 µM; in that of `Cc1ccc(-c2nnc(Nc3cccc(Br)c3)s2)c(C)c1`, 36.1 µM; in that of `COc1ccc(-c2nnc(Nc3ccc(Br)cc3)s2)c(OC)c1`, 29.7 µM. The value for `COc1ccc(Nc2nnc(-c3ccccc3Cl)s2)cc1` was 22.6 µM; that for `COc1cc(OC)cc(-c2nnc(Nc3ccc(Cl)c(Cl)c3)s2)c1` was 19.2 µM.

`Cc1ccc(Nc2nnc(-c3ccc(C(C)(C)C)cc3)s2)cc1`: the IC50 was 26.3 µM. The value for `COc1cc(OC)cc(-c2nnc(Nc3ccc(C)cc3)s2)c1` was 50.3 µM.

As to `Clc1ccc(Nc2nnc(-c3ccc(Br)cc3)s2)cc1Cl`, the IC50 worked out at 7.16 µM. In the case of `Cc1ccc(Nc2nnc(-c3ccccc3Cl)s2)cc1` it was 16.7 µM.

`Cc1ccc(Nc2nnc(-c3ccc(C)cc3C)s2)cc1`: the IC50 was determined as 34.2 µM. Turning to `COc1cccc(Nc2nnc(-c3ccc(Br)cc3)s2)c1`, the IC50 worked out at 31.1 µM. The value for `Clc1ccccc1-c1nnc(Nc2cccc(Br)c2)s1` was 8.96 µM. Regarding `COc1ccccc1-c1nnc(Nc2ccc(Cl)c(Cl)c2)s1`, the IC50 came out at 22.6 µM.
